Measurements: patent publication US20230151003A1, “COMPOUNDS AND METHODS OF USE” (Exelixis, Inc., priority 2020, published 2023)

What was measured:
Type in all cases: biochemical
KDR = KDR (Homo sapiens, UniProt P35968); assay: Human KDR kinase assay (HTRF KinEase); set-up: Human KDR (residues 790-1356; CarnaBio, 0.1 ng/ well); purchased CarnaBio; details: Table 2 Biological Activities, ATP at Km (4.0 μM)
Method: (§1) Kinase activity and compound inhibition were investigated using the HTRF® KinEase assay (Cisbio Cat #62TKOPEB) per manufacturer's instructions. In short, compounds were delivered in 300 nL volumes at 10 different concentrations in DMSO (3% final) to empty 384-well assay plates (Corning cat #3824). A mixture of enzyme, 1 μM biotynlated peptide substrate, and buffer in 10 μL volume was added. The assay was started upon the addition of ATP (at Km). The 10 μL reaction was incubated at room temperature. The reaction was stopped upon the addition of detection buffer containing streptavidin-XL665 (5 μL) and TK antibody-Eu3+ (5 μL). After a 60 min incubation at room temperature, the fluorescence at 665 nm and 620 nm was read on an Envision microplate reader (Perkin Elmer). Kinase activity normalized to DMSO (100% activity) and reference compound at 1 μM and (0% activity) was calculated using the fluorescence ratio […]. IC50 values were calculated by nonlinear regression analysis using a 4-parameter logistic curve fit in ActivityBase XE (IDBS).
(§2) Human KDR (residues 790-1356; CarnaBio, 0.1 ng/ well) was incubated with enzymatic buffer (Cisbio) supplemented with 5 mM MgCl2, 1 mM MnCl2, and 1 mM DTT. The mixture was added to the pre-plated compounds. The reaction was initiated upon addition of ATP at Km (4.0 μM). The reaction was incubated at room temperature for 40 min and stopped upon the addition of SA-XL665 and TK-antibody both diluted in EDTA-containing kinase detection buffer (Cisbio). The kinase activity was calculated as stated above and the IC50 values were reported.

Met = Met (Homo sapiens, UniProt P08581); assay: Human MET kinase assay (HTRF KinEase); set-up: Human MET (residues 956-1390; CarnaBio, 0.1 ng/ well); purchased CarnaBio; details: Table 2 Biological Activities, ATP at Km (3.0 μM), read-out: c-Met IC50
Sequence of Met (P08581 956-1390): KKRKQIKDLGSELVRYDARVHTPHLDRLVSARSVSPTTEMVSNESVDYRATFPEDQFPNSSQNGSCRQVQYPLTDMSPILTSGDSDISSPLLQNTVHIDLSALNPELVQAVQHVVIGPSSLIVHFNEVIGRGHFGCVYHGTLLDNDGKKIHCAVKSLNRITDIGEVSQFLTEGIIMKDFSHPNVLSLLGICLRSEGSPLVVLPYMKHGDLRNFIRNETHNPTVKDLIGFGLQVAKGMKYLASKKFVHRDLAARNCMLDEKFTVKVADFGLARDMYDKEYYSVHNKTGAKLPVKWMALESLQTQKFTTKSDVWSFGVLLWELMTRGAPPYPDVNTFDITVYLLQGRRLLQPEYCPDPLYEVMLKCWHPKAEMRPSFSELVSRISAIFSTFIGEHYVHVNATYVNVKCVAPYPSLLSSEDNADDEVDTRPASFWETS
Method: as §1
as §2, with “MET” for “KDR”, “956-1390;” for “790-1356;”, “DTT” for “MnCl2,”, “MnCl2.” for “DTT.”, “(3.0” for “(4.0”

Human MER = molecular target: T1, Human MER (Homo sapiens, UniProt Q12866); assay: Human MER kinase assay (HTRF KinEase); details: Table 2 Biological Activities, ATP at Km (40 μM)
T1 construct: Human MER (residues 528-999; CarnaBio, 1 ng/ well); purchased CarnaBio
T1 sequence (Q12866 528-999): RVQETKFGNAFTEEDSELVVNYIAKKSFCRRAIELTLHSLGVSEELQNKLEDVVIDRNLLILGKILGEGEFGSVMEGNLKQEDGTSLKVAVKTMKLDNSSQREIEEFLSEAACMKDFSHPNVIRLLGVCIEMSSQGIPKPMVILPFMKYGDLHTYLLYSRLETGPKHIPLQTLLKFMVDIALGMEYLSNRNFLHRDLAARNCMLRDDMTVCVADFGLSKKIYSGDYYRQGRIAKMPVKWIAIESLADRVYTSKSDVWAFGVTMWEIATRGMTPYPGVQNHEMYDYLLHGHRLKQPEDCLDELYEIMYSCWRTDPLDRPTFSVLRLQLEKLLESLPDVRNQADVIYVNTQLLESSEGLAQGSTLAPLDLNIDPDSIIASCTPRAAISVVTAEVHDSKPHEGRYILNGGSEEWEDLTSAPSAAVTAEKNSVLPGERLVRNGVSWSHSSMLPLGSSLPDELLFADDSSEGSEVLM
Method: as §1
as §2, with “MER” for “KDR”, “528-999;” for “790-1356;”, “1” for “0.1”, “MgCl2” for “MgCl2, 1 mM MnCl2,”, “(40” for “(4.0”, “60” for “40”

Sequence of KDR (P35968 790-1356): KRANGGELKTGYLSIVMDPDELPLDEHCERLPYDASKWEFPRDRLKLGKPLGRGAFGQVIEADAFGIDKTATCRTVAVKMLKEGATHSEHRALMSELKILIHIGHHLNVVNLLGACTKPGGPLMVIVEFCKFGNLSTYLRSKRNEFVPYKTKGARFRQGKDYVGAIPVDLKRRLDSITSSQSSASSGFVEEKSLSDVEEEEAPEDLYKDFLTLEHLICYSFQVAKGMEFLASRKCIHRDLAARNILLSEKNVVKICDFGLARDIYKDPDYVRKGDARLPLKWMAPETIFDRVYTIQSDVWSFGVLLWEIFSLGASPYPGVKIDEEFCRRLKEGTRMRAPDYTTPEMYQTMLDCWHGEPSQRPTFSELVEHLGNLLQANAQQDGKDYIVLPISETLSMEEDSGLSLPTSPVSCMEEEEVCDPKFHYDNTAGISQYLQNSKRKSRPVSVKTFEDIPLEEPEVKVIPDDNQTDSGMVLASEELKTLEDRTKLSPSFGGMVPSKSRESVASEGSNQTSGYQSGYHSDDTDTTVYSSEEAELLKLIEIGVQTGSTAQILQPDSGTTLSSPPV

Compound	IC50 (KDR) [nM]	IC50 (Met) [nM]	IC50 (Human MER) [nM]
COc1cc2nccc(Oc3ccc(NC(=O)c4cn(C)c(C)c(-c5ccc(F)cn5)c4=O)cc3)c2nc1OC [Compound 86, N-[4-[(6,7-Dimethoxy-1,5-naphthyridin-4-yl)oxy]phenyl]-5-(5-fluoropyridin-2-yl)-1,6-dimethyl-4-oxopyridine-3-carboxamide]	300 to 1000	≤ 100	≤ 100
COc1cnc2c(Oc3ccc(NC(=O)c4c(C)nc(C)c(-c5ccc(F)cn5)c4O)cc3F)ccnc2c1 [Compound 217, N-[3-Fluoro-4-[(7-methoxy-1,5-naphthyridin-4-yl)oxy]phenyl]-5-(5-fluoropyridin-2-yl)-4-hydroxy-2,6-dimethylpyridine-3-carboxamide]	–	≤ 100	–
COc1cc2nccc(Oc3ccc(NC(=O)c4cc(C(C)=O)c(C)n(-c5ccc(F)cn5)c4=O)cc3F)c2nc1OC [Compound 59, 5-Acetyl-N-[4-[(6,7-dimethoxy-1,5-naphthyridin-4-yl)oxy]-3-fluorophenyl]-1-(5-fluoropyridin-2-yl)-6-methyl-2-oxopyridine-3-carboxamide]	300 to 1000	≤ 100	≤ 100
COc1cc2nccc(Oc3ccc(NC(=O)c4c(C)nc(C)c(-c5ccc(F)cn5)c4O)cc3)c2nc1OC [Compound 216, N-[4-[(6,7-Dimethoxy-1,5-naphthyridin-4-yl)oxy]phenyl]-5-(5-fluoropyridin-2-yl)-4-hydroxy-2,6-dimethylpyridine-3-carboxamide]	–	≤ 100	–
COc1cc2nccc(Oc3ccc(NC(=O)c4c(C)nc(C)c(-c5ccc(F)cn5)c4O)cc3F)c2nc1OC [Compound 218, N-[4-[(6,7-Dimethoxy-1,5-naphthyridin-4-yl)oxy]-3-fluorophenyl]-5-(5-fluoropyridin-2-yl)-4-hydroxy-2,6-dimethylpyridine-3-carboxamide]	–	≤ 100	–
COc1cc2nccc(Oc3ccc(NC(=O)c4c(C)ncc(-c5ccc(F)cn5)c4O)cc3F)c2nc1OC [Compound 68, N-[4-[(6,7-Dimethoxy-1,5-naphthyridin-4-yl)oxy]-3-fluorophenyl]-5-(5-fluoropyridin-2-yl)-4-hydroxy-2-methylpyridine-3-carboxamide]	≤ 100	≤ 100	≤ 100
COc1cc2nccc(Oc3ccc(NC(=O)c4cc(C#N)c(C)n(-c5ccc(F)cn5)c4=O)cc3F)c2nc1OC [Compound 56, 5-Cyano-N-[4-[(6,7-dimethoxy-1,5-naphthyridin-4-yl)oxy]-3-fluorophenyl]-1-(5-fluoropyridin-2-yl)-6-methyl-2-oxopyridine-3-carboxamide]	300 to 1000	≤ 100	≤ 100
COc1cc2nccc(Oc3ccc(NC(=O)c4ccc(C)n(-c5ccncc5F)c4=O)cc3F)c2nc1OC [Compound 220, N-[4-[(6,7-Dimethoxy-1,5-naphthyridin-4-yl)oxy]-3-fluorophenyl]-1-(3-fluoropyridin-4-yl)-6-methyl-2-oxopyridine-3-carboxamide]	–	≤ 100	–
COCc1nc(C)c(-c2ccc(F)cn2)c(O)c1C(=O)Nc1ccc(Oc2ccnc3cc(OC)c(OC)nc23)c(F)c1 [Compound 214, N-[4-[(6,7-Dimethoxy-1,5-naphthyridin-4-yl)oxy]-3-fluorophenyl]-5-(5-fluoropyridin-2-yl)-4-hydroxy-2-(methoxymethyl)-6-methylpyridine-3-carboxamid]	–	≤ 100	–
COc1cc2nccc(Oc3ccc(NC(=O)c4c(C)ccn(-c5ccc(F)cn5)c4=O)cc3F)c2nc1OC [Compound 41, N-[4-[(6,7-Dimethoxy-1,5-naphthyridin-4-yl)oxy]-3-fluorophenyl]-1-(5-fluoropyridin-2-yl)-4-methyl-2-oxopyridine-3-carboxamide]	≤ 100	≤ 100	≤ 100
COc1cc2nccc(Oc3ccc(NC(=O)c4c(C)n(C)cc(-c5ccc(F)cn5)c4=O)cc3F)c2nc1OC [Compound 71, N-[4-[(6,7-Dimethoxy-1,5-naphthyridin-4-yl)oxy]-3-fluorophenyl]-5-(5-fluoropyridin-2-yl)-1,2-dimethyl-4-oxopyridine-3-carboxamide]	300 to 1000	–	≤ 100
COc1cc2nccc(Oc3ccc(NC(=O)c4ccc(C)n(-c5ccncc5)c4=O)cc3F)c2nc1OC [Compound 221, N-[4-[(6,7-Dimethoxy-1,5-naphthyridin-4-yl)oxy]-3-fluorophenyl]-6-methyl-2-oxo-1-pyridin-4-ylpyridine-3-carboxamid]	–	≤ 100	–

Second part, the molecule after the results:

IC50 (KDR) [nM]	IC50 (Met) [nM]	IC50 (Human MER) [nM]	Compound
≤ 100	≤ 100	≤ 100	COc1cc2nccc(Oc3ccc(NC(=O)c4cccn(-c5ccc(F)cn5)c4=O)cc3F)c2nc1OC [Compound 42, N-[4-[(6,7-Dimethoxy-1,5-naphthyridin-4-yl)oxy]-3-fluorophenyl]-1-(5-fluoropyridin-2-yl)-2-oxopyridine-3-carboxamide]
100 to 300	≤ 100	≤ 100	COc1ccc2nccc(Oc3ccc(NC(=O)c4ccc(C)n(-c5ccc(F)cn5)c4=O)cc3F)c2c1 [Compound 49, N-[3-Fluoro-4-(6-methoxyquinolin-4-yl)oxyphenyl]-1-(5-fluoropyridin-2-yl)-6-methyl-2-oxopyridine-3-carboxamide]
300 to 1000	100 to 300	≤ 100	COc1ccc2nccc(Oc3ccc(NC(=O)c4ccc(C)n(-c5ccc(F)cn5)c4=O)cc3F)c2n1 [Compound 47, N-[3-Fluoro-4-[(6-methoxy-1,5-naphthyridin-4-yl)oxy]phenyl]-1-(5-fluoropyridin-2-yl)-6-methyl-2-oxopyridine-3-carboxamide]
≤ 100	≤ 100	≤ 100	COc1cc2nccc(Oc3ccc(NC(=O)c4ccc(C)n(-c5ccc(F)cn5)c4=O)cc3)c2nc1OC [Compound 44, N-[4-[(6,7-Dimethoxy-1,5-naphthyridin-4-yl)oxy]phenyl]-1-(5-fluoropyridin-2-yl)-6-methyl-2-oxopyridine-3-carboxamide]
300 to 1000	≤ 100	≤ 100	COc1ccc2nccc(Oc3ccc(NC(=O)c4ccc(C)n(-c5ncc(F)cc5C)c4=O)cc3F)c2n1 [Compound 53, N-[3-Fluoro-4-[(6-methoxy-1,5-naphthyridin-4-yl)oxy]phenyl]-1-(5-fluoro-3-methylpyridin-2-yl)-6-methyl-2-oxopyridine-3-carboxamide]
≤ 100	≤ 100	≤ 100	COc1cc2nccc(Oc3ccc(NC(=O)c4ccc(C)n(-c5ccc(F)cn5)c4=O)cc3F)c2nc1OC [Compound 43, N-[4-[(6,7-Dimethoxy-1,5-naphthyridin-4-yl)oxy]-3-fluorophenyl]-1-(5-fluoropyridin-2-yl)-6-methyl-2-oxopyridine-3-carboxamide]
300 to 1000	≤ 100	≤ 100	Cc1ccc(C(=O)Nc2ccc(Oc3ccnc4cccnc34)c(F)c2)c(=O)n1-c1ccc(F)cn1 [Compound 48, N-[3-Fluoro-4-(1,5-naphthyridin-4-yloxy)phenyl]-1-(5-fluoropyridin-2-yl)-6-methyl-2-oxopyridine-3-carboxamide]
